{"source": "patent US20230310628A1", "about": "“Multi-Targeted Multi-Valent Ligand Drug Particles for the Treatment and Prevention of Diseases and Conditions” (priority 2017, published 2023)", "test_system": "cell lines expressing HER2 and EGFR", "assay": "Cytotoxicity studies in vitro, free versus liposomal doxorubicin", "assay_type": "cell-based, human", "details": "compared with liposomal doxorubicin", "method": "Cytotoxicity studies were conducted with doxorubicin as it is the staple drug for liposomal delivery.\nFor cytotoxicity studies, cells cultured overnight in 96-well plates (10*10^3 cells/well) were incubated with doxorubicin-load liposomes (100 μg/ml with 1/3 dilutions) at 37° C. for 4 hr, washed with PBS, and grown in medium for 3 additional days. Cell viability was analyzed by MTT assay."}
{"smiles": "COc1cccc2c1C(=O)c1c(O)c3c(c(O)c1C2=O)C[C@@](O)(C(=O)CO)C[C@@H]3O[C@H]1C[C@H](N)[C@H](O)[C@H](C)O1", "note": "[free doxorubicin, doxorubicin]", "values": [{"measurement": "effectiveness in cytotoxicity studies in vitro", "result": "most effective"}]}
